Assay results as given in PMC6715681, “A high-throughput screen to identify novel synthetic lethal compounds for the treatment of E-cadherin-deficient cells” (Scientific Reports, 2019).
Marks after values point to notes of the source that are not given here.

Legend:
Type in all cases: cell-based, human
MCF10A CDH1^−/− cells [1] = assay: xCELLigence real-time impedance assay (cell proliferation index); settings: for SL differential between the two cell lines (in words): xCELLigence real-time assay, SLEC-8 at 10 μM, SLEC-11 at 20 μM
Protocol: (§1) The xCELLigence real-time system quantifies electrical impedance as a measurement of cell viability which is expressed as the cell proliferation index. […] This was due to drug effects and briefly removing plates from the incubator for the addition of compounds and controls. Despite a slower adhesion time for MCF10A CDH1^−/−, consistent with our previous finding[3] the DMSO control treated cells had similar slopes of 0.17 and 0.15 for MCF10A WT and MCF10A CDH1^−/−, respectively.
(§2) Figure 10 Real-time xCELLigence data for lead compounds 8 and 11. (A) Timeline for the real-time cellular assay. Plates were seeded 4,000 cells/well as described in the Methods. (B,C) Data shown is a representative experiment of two biological replicates, performed in 96-well xCELLigence E-plates. Error bars are SD. Measurements were taken every 15 minutes. The cell proliferation index was calculated using the RTCA software. (B) Cells were treated with SLEC-8. (C) Cells were treated with SLEC-11.
(§3) Cells were seeded into each well of Corning’s black walled, clear bottom 96-well plates with a total volume of 100 μL per well. Edge wells were excluded. Both isogenic cell lines were seeded into the same plate to mitigate plate-to-plate variation. Plates for real-time analysis were transferred to the xCELLigence platform (ACEA Biosciences, USA) or the IncuCyte FLR imaging system (Essen BioScience, USA) as previously described.

MCF10A WT cells [2] = assay: as above
Protocol: as §1, §2, §3

MCF10A CDH1^−/− cells [3] = assay: IncuCyte real-time live cell imaging (cell confluence); settings: for Greatest SL difference in the slope of the growth trendline, MCF10A CDH1^−/− compared to MCF10A WT: linear growth phase; for Growth rate effect in MCF10A CDH1^−/− cells (in words): all concentrations between 2.5–20 μM, 48 hours
Protocol: (§4) Real-time viability assays were performed on the two lead compounds SLEC-8 and SLEC-11 using the two isogenic MCF10A cell lines. The IncuCyte and xCELLigence assay systems quantify cell growth over the drugging period in real-time, allowing for the assessment of even subtle growth inhibitory effects following compound treatment. The IncuCyte was used in combination with an end-point assay (nuclei counting) to give both live cell imaging and normalized cell counts for each plate.
(§5) Figure 9 IncuCyte validation data for lead compounds 8 and 11. (A) Timeline for the combined live cell imaging and end-point viability assays. Plates were seeded 4,000 cells/well as described in the Methods. (B,C) One hour following compound addition, plates were transferred to the IncuCyte. Three 4x images per well were taken every two hours for 48 hours. An EC80 dose of doxorubicin was used (Supplementary Table 1). Data shown is a representative experiment of three biological replicates. Error bars are SD. The cell confluence v1.5 was calculated using the IncuCyte software. (B) Live cell imaging for SLEC-8. (C) Live cell imaging for SLEC-11. Graphs were created in Excel.
(§6) To calculate growth rates, a trendline was fitted to the linear growth phase of each cell line. The greatest SL difference in the slope of the trendline for SLEC-8 as at 10 μM treatment with 2.0 fold difference for MCF10A CDH1^−/− cells, compared to MCF10A WT. For SLEC-11 the greatest SL difference was at 20 μM, with a 4.0 fold difference in the slope of the trendline for MCF10A CDH1^−/− cells compared to MCF10A WT (data not shown).
as §3

MCF10A WT cells [4] = assay: as above; settings: 2.5–20 μM, 48 hours
Protocol: as §4, §5, §6, §3

MCF10A CDH1^−/− cells [5] = assay: Medium-throughput validation in 96-well plates, Hoechst-33342 nuclei counts (CellProfiler); settings: for EC50 ratio (MCF10A WT/MCF10A CDH1^−/−) / EC50: 96-well validation; for EC50: Hoechst nuclei counts, at least five concentration points; for Differential at 5 µM (%): 48 h post compound addition
Protocol: as §3
Seventy-two hours post seeding (or 48 hours post compound addition), plates were assayed for cell viability using a one-step cocktail of PFA (0.25% v/v), saponin (0.075% w/v) and Hoechst 33342 (1 μg/ml final) as described previously. CellProfiler was used to enumerate cell counts as previously described.

[6] = normalized cell counts MCF10A WT – MCF10A CDH1^−/−, 96-well

SMILES	SL differential between the two cell lines (in words) (MCF10A CDH1^−/− cells [1])	Decrease in cell proliferation index compared to DMSO (MCF10A CDH1^−/− cells [1]; xCELLigence, 10 μM, 60 hours post seeding)	Recovery of MCF10A WT cells (in words) (MCF10A WT cells [2]; 10 μM, by 60 hours post seeding)	Greatest SL difference in the slope of the growth trendline, MCF10A CDH1^−/− compared to MCF10A WT (MCF10A CDH1^−/− cells [3]; 10 μM treatment)	Growth rate effect in MCF10A CDH1^−/− cells (in words) (MCF10A CDH1^−/− cells [3])	Growth reduction in MCF10A WT cells (in words) (MCF10A WT cells [4])	EC50 ratio (MCF10A WT/MCF10A CDH1^−/−) (MCF10A CDH1^−/− cells [5])	EC50 (MCF10A CDH1^−/− cells [5])	EC50 (MCF10A CDH1^−/− cells [5]; Homo sapiens, MCF-10A)	SL differential at 2.5 μM (MCF10A CDH1^−/− cells [5]; normalized cell counts MCF10A WT – MCF10A CDH1^−/−, 96-well, 2.5 μM)	Differential at 5 µM (%) (MCF10A CDH1^−/− cells [5]; [6])	Differential at 5 µM (%) (MCF10A CDH1^−/− cells [5]; normalized cell counts MCF10A WT – MCF10A CDH1^−/−, 96-well, listed as 8)	Difference in cell proliferation index between compound and DMSO (maximum) (MCF10A CDH1^−/− cells [1]; xCELLigence, 20 μM, 62 hours post seeding)	Difference in cell proliferation index to DMSO in MCF10A WT cells (in words) (MCF10A WT cells [2]; 20 μM, 62 hours post seeding)	Greatest SL difference in the slope of the growth trendline, MCF10A CDH1^−/− compared to MCF10A WT (MCF10A CDH1^−/− cells [3]; 20 μM treatment)	Differential at 5 µM (%) (MCF10A CDH1^−/− cells [5]; normalized cell counts MCF10A WT – MCF10A CDH1^−/−, 96-well, listed as 11)
CC(O)CNCc1ccc(OCc2ccc(Cl)cc2Cl)cc1 (centres unmarked) [SLEC-8]	significant SL differential	2.7 fold	able to fully recover	2.0 fold	dose-dependent growth rate reduction	only observed at the higher concentrations	1.36	9.07 µM	9.1 µM	22.0%	22.8%	22.79* %				
COc1ccc2nc(C)cc(NCc3ccc(F)cc3)c2c1 [SLEC-11, N-(4-Fluorobenzyl)-6-methoxy-2-methylquinolin-4-amine]	significant SL differential				dose-dependent growth rate reduction	only observed at the higher concentrations	1.53	7.02 µM	7 µM		20.7%		7.9 fold	no difference	4.0 fold	20.74* %
